# Assays:
# Chinese leaves [1] = assay: Container experiment with Chinese leaves: growth (fresh-matter yield); format: in vivo, Chinese leaves "Kasumi"
# Procedure: (§1) Experimental Set-Up: Container Experiment With Chinese Leaves • 1. without addition • 2. 8 mg S/pot/week • 3. 80 mg S/pot/week • 4. 2 mg sodium lignosulfonate/pot/week • 5. 20 mg sodium lignosulfonate/pot/week • 6. 10 mg mixture of 80% by weight sulfur and 20% by weight sodium lignosulfonate/pot/week • 7. 100 mg mixture of 80% by weight sulfur and 20% by weight sodium lignosulfonate/pot/week Method: Plant Species: Chinese leaves “Kasumi”, sown into P-soil in multi-cell trays, age at pricking out time into experimental containers: approx. 14 days; the same containers are planted twice. Soil from Ruchheim, loam, pH 7.4, mixed with quartz sand (for retaining the structural stability during the container experiment). PE pots/15, approx. 1 l substrate (1.5 kg). Greenhouse, 25° C., supplementary lighting suitable for assimilation. Plant food 15+10+15+2 with trace elements without chelating agent (LAB 2411D; 0.5 g/container/week). Using a syringe and cannula into the soil at a depth of approx. 1 cm to simulate trickle irrigation conditions. The additions were applied in one application weekly via the cannula. 10 mg of mixture M according to the invention/container/week correspond to approx. 5 kg/ha.
# Chinese leaves [2] = assay: Container experiment with Chinese leaves: mineral contents in leaves; format: in vivo, Chinese leaves "Kasumi"; details: plant batch 1; for Iron content in ppm / Manganese content in ppm: Table 3
# Procedure: as §1
# [3] = plant batch 1, S 8 mg, lignosulfonate 2 mg, mixture M 10 mg per pot/week
# [4] = plant batch 1, S 80 mg, lignosulfonate 20 mg, mixture M 100 mg per pot/week
# [5] = plant batch 2, S 8 mg, lignosulfonate 2 mg, mixture M 10 mg per pot/week
# [6] = plant batch 2, S 80 mg, lignosulfonate 20 mg, mixture M 100 mg per pot/week
# [7] = S 8 mg, lignosulfonate 2 mg, mixture M 10 mg
# [8] = S 80 mg, lignosulfonate 20 mg, mixture M 100 mg
compound,measurement,setting,value
"S1SSSSSSS1 [Sulfur, sulfur]",Effect on growth (in words),"Chinese leaves [1]; increasing additions, in particular in the first batch of plants",no growth-promoting effect
same,Fresh-matter yield,Chinese leaves [1]; [3],106 g/container
same,Fresh-matter yield % of untreated,Chinese leaves [1]; [3],97 % of untreated
same,Fresh-matter yield,Chinese leaves [1]; [4],108 g/container
same,Fresh-matter yield % of untreated,Chinese leaves [1]; [4],99 % of untreated
same,Fresh-matter yield,Chinese leaves [1]; [5],67 g/container
same,Fresh-matter yield % of untreated,Chinese leaves [1]; [5],96 % of untreated
same,Fresh-matter yield,Chinese leaves [1]; [6],68 g/container
same,Fresh-matter yield % of untreated,Chinese leaves [1]; [6],97 % of untreated
same,Iron content in ppm,Chinese leaves [2]; [7],140 ppm
same,Manganese content in ppm,Chinese leaves [2]; [7],66 ppm
same,Iron content in ppm,Chinese leaves [2]; [8],174 ppm
same,Manganese content in ppm,Chinese leaves [2]; [8],67 ppm
same,Fe content in leaves,Chinese leaves [2]; [7],140 ppm in DM
same,Iron content in % of untreated,Chinese leaves [2]; [7],127 % of untreated
same,K content in leaves,Chinese leaves [2]; [7],5.23 % in DM
same,Manganese content in % of untreated,Chinese leaves [2]; [7],101 % of untreated
same,Mg content in leaves,Chinese leaves [2]; [7],0.24 % in DM
same,Mn content in leaves,Chinese leaves [2]; [7],66 ppm in DM
same,N content in leaves,Chinese leaves [2]; [7],3.57 % in DM
same,P content in leaves,Chinese leaves [2]; [7],0.46 % in DM
same,Fe content in leaves,Chinese leaves [2]; [8],174 ppm in DM
same,Iron content in % of untreated,Chinese leaves [2]; [8],158 % of untreated
same,K content in leaves,Chinese leaves [2]; [8],5.57 % in DM
same,Manganese content in % of untreated,Chinese leaves [2]; [8],103 % of untreated
same,Mg content in leaves,Chinese leaves [2]; [8],0.25 % in DM
same,Mn content in leaves,Chinese leaves [2]; [8],67 ppm in DM
same,N content in leaves,Chinese leaves [2]; [8],3.86 % in DM
same,P content in leaves,Chinese leaves [2]; [8],0.50 % in DM

# Reference: US7530196B2, “Method for improving plant growth by application of a mixture of sulfur and complexing agent” (BASF Aktiengesellschaft, priority 2001, dated 2009)
